Assay results reported in patent US20110046378A1, “Novel Imaging Agents for Detecting Neurological Dysfunction” (SIEMENS MEDICAL SOLUTIONS USA, INC., priority 2008, published 2011).
Like-named read-outs stand apart in the source and are kept apart here.

Tests used:
[1] = test system: Aβ monomer; details: read-out: Binding Affinity IC50; cited from earlier work
[2] = biological target: Aβ fibrils; details: read-out: Binding Affinity Ki; cited from earlier work
[3] = test system: Amyloid (AD brain slices); experiment: [18F]-CB001 competition studies on AD brain slices; assay type: binding, human; details: for blocking of [18F]-CB001 staining: cold competitor, increasing concentrations
[4] = test system: Amyloid (AD patient's brain slice); experiment: Amyloid autoradiography staining of AD patient's brain slices, grey/white matter binding with wash protocols; design: species or system human; details: for Grey/white matter binding ratio using mild wash conditions / Grey/white matter binding ratio using harsh FDDNP wash conditions / grey to white matter binding ratio: 30 min incubation; for Grey/white matter binding ratio using mild wash conditions / Grey/white matter binding ratio using harsh FDDNP wash conditions: PBS, 20 um AD brain slices; for Grey/white matter binding ratio using mild wash conditions: 30%/40%/20% EtOH:water; for Grey/white matter binding ratio using harsh FDDNP wash conditions: 70%/90%/70% EtOH:water; for order of (non-specific) white matter binding: AD brain slices; for amyloid autoradiography staining (ex vivo), qualitative: AD patient's brain / normal brain; for grey to white matter binding ratio: human AD brain slices, EtOH:water washes
Protocol: (§1) Ex Vivo Competition Assay Using Amyloid (AD patient's brain slice) Autoradiography Staining
A study was conducted to examine the grey to white matter binding ratios for 4 different tracers: CB-001, CB-003, FDDNP and F-PiB (FIG. 7 and FIG. 8). […] After the human brain slices from AD patients were incubated with a given tracer for 30 min, the slices were washed with various EtOH:water solutions in an attempt to optimize the grey-to white matter ratios (FIG. 9). The results were surprising and unexpected in view of previous work performed by other researchers. CB-001 has a slightly higher c Log P than FDDNP (3.8 vs 3.4) and would be expected to have poorer washout than FDDNP based on these values. […] More specifically, the white matter binding of FDDNP is several shades darker than CB-001's white matter binding, indicating low non-specific binding of CB-001.

[5] = biological target: T1, Aβ 1-42 aggregates (Homo sapiens, UniProt P05067); details: read-out: Binding Affinity Ki; cited from earlier work
T1 construct: Aβ 1-42 aggregates

[6] = biological target: T2, Amyloid (AD patient's brain slice) (Homo sapiens, UniProt P05067); experiment: IC50 determination with [18F]-PiB by ex vivo competition assay using autoradiography staining; assay type: binding; details: for blocking of [18F]-PiB tissue binding, qualitative: human AD brains
T2 construct: The brain slices were 20 um thick
Description: as §1

[7] = MicroPET dynamic scan of rat brain after tail vein injection; assay type: in vivo, white Sprague-Dawley rat; details: 30 min dynamic scan
Protocol: A white Sprague-Dawley rat was injected via tail vein with ˜850 uCi AD-CB-001, formulated in 10% EtOH:water. A dynamic scan was conducted for 30 min on a R4 microPET scanner. The data was reconstructed using 1 min framing.

[8] = MicroPET imaging in WT and App mice; assay type: in vivo; details: for brain clearance / washout rate: WT and App mice brain, compared with [18F]PiB
[9] = biological target: Aβ42 insoluble aggregates (Homo sapiens, UniProt P05067); experiment: Surface plasmon resonance (Biacore) assay, Aβ42 insoluble aggregates; details: SPR; read-out: binding to insoluble aggregates
[10] = biological target: Aβ42 soluble aggregates (Homo sapiens, UniProt P05067); experiment: Surface plasmon resonance (Biacore) assay, Aβ42 soluble aggregates; details: SPR; read-out: binding to soluble aggregates
[11] = determination 1, vs [18F]-PiB, read-out: IC50 1
[12] = mean of determinations, vs [18F]-PiB, read-out: Average IC50

T2 sequence (P05067 672-711 limits assumed): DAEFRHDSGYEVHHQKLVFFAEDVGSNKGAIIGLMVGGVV
Sequence of Aβ42 insoluble aggregates (P05067 672-713 limits assumed): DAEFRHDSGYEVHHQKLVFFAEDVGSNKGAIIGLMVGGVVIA
Sequence of Aβ42 soluble aggregates (P05067 672-713 limits assumed): as above
T1 sequence (P05067 672-713 limits assumed): as above

## COc1cc(/C=C/C(=O)/C=C(O)/C=C/c2ccc(O)c(OC)c2)ccc1O [Curcumin]
[1]
  IC50: 10 to 20 µM

## CNc1ccc(-c2nc3ccc(O)cc3s2)cc1 [PiB, reference compound]
[2]
  Ki: 2.8 nM

## CC(=C(C#N)C#N)c1ccc2cc(N(C)CCF)ccc2c1 [FDDNP, reference compound]
[3]
  blocking of [18F]-CB001 staining: much less capable of blocking [18F]-CB001 staining
[4]
  Grey/white matter binding ratio using mild wash conditions: Poor
  Grey/white matter binding ratio using harsh FDDNP wash conditions: Fair
  order of (non-specific) white matter binding: FDDNP>CB001>[18F]-PiB>CB003

## O=S(=O)(O)c1cccc2cccc(Nc3ccccc3)c12 [ANS]
[1]
  IC50: > 100 µM

## CNc1ccc(/C=C2\Oc3ccc([125I])cc3C2=O)cc1 [Aurones]
[5]
  Ki: 1.24 nM

## FCCOc1ccc2c(c1)[nH]c1ccccc12 [CB-001, 2-(2-fluoroethoxy)-9H-carbazole]
[3]; AD brain slices
  plaque binding of the tracer in competition studies: reversible plaque binding and competition with PiB, and little/no white matter binding
[3]
  blocking of [18F]-CB001 staining: PiB appears to block tracer binding with the same strength as cold CB001
[6]; [11]
  IC50: 1000 nM
[6]; determination 2, vs [18F]-PiB, read-out: IC50 2
  IC50: 480 nM
[6]; [12]
  IC50: 740 nM
[4]
  Grey/white matter binding ratio using mild wash conditions: Poor
  Grey/white matter binding ratio using harsh FDDNP wash conditions: Excellent
  order of (non-specific) white matter binding: FDDNP>CB001>[18F]-PiB>CB003
  amyloid autoradiography staining (ex vivo), qualitative: good amyloid binding and little/no white matter binding
  grey to white matter binding ratio: much better grey to white matter ratio compared to FDDNP
[7]
  brain entry and washout, qualitative: Within minutes, the tracer entered the rat brain and quickly washed out
[8]; App and WT mice, microPET
  brain uptake, qualitative: very good brain uptake

## Cc1ccc2c(c1)sc(-c1ccc(N(C)C)cc1)[n+]2C [Thioflavin T]
[1]
  IC50: > 500 µM

## FCCOCCOCCOc1ccc2c(c1)[nH]c1ccccc12 [CB-003, 2-(2-(2-(2-fluoroethoxy)ethoxy)ethoxy)-9H-carbazole]
[6]; [11]
  IC50: 1100 nM
[6]; determination 6, vs [18F]-PiB, read-out: IC50 6
  IC50: 900 nM
[6]; determination 13, vs [18F]-PiB, read-out: IC50 13
  IC50: 920 nM
[6]
  blocking of [18F]-PiB tissue binding, qualitative: still competes with 18F-PiB for binding sites in human AD brains
[6]; listed as CB003
  blocking of [18F]-PiB tissue binding, qualitative: concentration-dependent blocking of [18F]-PiB tissue binding
[6]; [12]
  IC50: 973 nM
[4]
  Grey/white matter binding ratio using mild wash conditions: Excellent
  order of (non-specific) white matter binding: FDDNP>CB001>[18F]-PiB>CB003
  amyloid autoradiography staining (ex vivo), qualitative: amyloid deposits were clearly visible in the grey matter with little white matter uptake
  grey to white matter binding ratio: excellent grey to white matter binding ratios
[4]; listed as [18F]-CB003
  amyloid autoradiography staining (ex vivo), qualitative: clearly distinguishes between Alzheimer's and normal brains
[8]
  brain clearance / washout rate: faster washout rate than 18F-PiB
[8]; listed as [18F]-CB003
  brain clearance / washout rate: much faster than with [18F]PiB
[8]; microPET
  larger brain/muscle ratio of App mice compared to WT mice: up to 25%
[9]
  Kd: 9 nM
[10]
  Kd: 262 nM

## Nc1c(/N=N/c2ccc(-c3ccc(/N=N/c4cc(S(=O)(=O)O)c5ccccc5c4N)cc3)cc2)cc(S(=O)(=O)O)c2ccccc12 [Congo Red]
[1]
  IC50: 2 to 10 µM
